Measured values from ChEMBL document CHEMBL1123931, “N10-substituted 5,8-dideazafolate inhibitors of glycinamide ribonucleotide transformylase” (J Med Chem, 1987).

Key:
[1] = target: T1, Trifunctional purine biosynthetic protein adenosine-3 (Mus musculus, UniProt Q64737); test: Inhibition of GAR transformylase isolated from murine lymphoma cell line L5178Y; assay type: cell-free
T1 sequence (Q64737 whole entry): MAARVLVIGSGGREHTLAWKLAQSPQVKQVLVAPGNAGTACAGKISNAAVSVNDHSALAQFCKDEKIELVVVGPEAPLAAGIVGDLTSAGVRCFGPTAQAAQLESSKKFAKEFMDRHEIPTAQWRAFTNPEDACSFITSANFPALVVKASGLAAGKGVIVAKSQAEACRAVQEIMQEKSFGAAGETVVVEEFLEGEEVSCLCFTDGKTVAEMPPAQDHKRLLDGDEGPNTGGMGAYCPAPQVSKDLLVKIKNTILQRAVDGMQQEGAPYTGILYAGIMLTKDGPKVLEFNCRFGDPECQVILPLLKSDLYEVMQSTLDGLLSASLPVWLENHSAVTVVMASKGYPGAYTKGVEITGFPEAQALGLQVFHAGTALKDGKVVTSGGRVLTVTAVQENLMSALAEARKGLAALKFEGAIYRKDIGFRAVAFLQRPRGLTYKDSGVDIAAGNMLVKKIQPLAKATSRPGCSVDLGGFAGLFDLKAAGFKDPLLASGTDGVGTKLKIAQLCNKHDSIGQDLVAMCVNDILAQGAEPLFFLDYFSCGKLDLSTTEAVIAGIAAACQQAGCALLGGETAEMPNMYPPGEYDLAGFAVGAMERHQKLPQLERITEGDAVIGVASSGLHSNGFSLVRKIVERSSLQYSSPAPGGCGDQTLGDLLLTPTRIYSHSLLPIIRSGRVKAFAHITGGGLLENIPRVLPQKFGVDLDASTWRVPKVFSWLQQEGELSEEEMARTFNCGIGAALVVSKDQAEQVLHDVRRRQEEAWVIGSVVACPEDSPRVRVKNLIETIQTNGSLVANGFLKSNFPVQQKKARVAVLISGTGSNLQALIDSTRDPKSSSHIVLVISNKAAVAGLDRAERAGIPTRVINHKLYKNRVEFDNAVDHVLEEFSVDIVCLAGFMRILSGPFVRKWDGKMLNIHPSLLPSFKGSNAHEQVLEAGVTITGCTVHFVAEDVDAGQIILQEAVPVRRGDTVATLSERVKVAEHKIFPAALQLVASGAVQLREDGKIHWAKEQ

[2] = target: T1, Trifunctional purine biosynthetic protein adenosine-3; test: Inhibition of GAR transformylase isolated from the murine lymphoma cell line L5178Y; assay type: cell-free

Ki [1] [µM]	Ki [2] [µM]	Compound
1.3	–	CC(=O)N(Cc1ccc2nc(N)[nH]c(=O)c2c1)c1ccc(C(=O)NC(CCC(=O)O)C(=O)O)cc1 (configuration not stated)
5	–	Nc1nc2ccc(CN(CC(=O)O)c3ccc(C(=O)NC(CCC(=O)O)C(=O)O)cc3)cc2c(=O)[nH]1 (configuration not stated)
–	16	CCN(Cc1ccc2nc(N)nc(O)c2c1)c1ccc(C(=O)NC(CCC(=O)O)C(=O)O)cc1 (configuration not stated)
18	–	Nc1nc2ccc(CN(Cc3cccc(F)c3)c3ccc(C(=O)NC(CCC(=O)O)C(=O)O)cc3)cc2c(=O)[nH]1 (configuration not stated)
3	–	Nc1nc(O)c2cc(CN(CC(=O)c3ccccc3)c3ccc(C(=O)NC(CCC(=O)O)C(=O)O)cc3)ccc2n1 (configuration not stated)
7	–	Nc1nc2ccc(CN(Cc3c[nH]c(=O)[nH]c3=O)c3ccc(C(=O)NC(CCC(=O)O)C(=O)O)cc3)cc2c(=O)[nH]1 (configuration not stated)
11	–	N#CCCCN(Cc1ccc2nc(N)nc(O)c2c1)c1ccc(C(=O)NC(CCC(=O)O)C(=O)O)cc1 (configuration not stated)
8	–	Nc1nc2ccc(CN(CC3CC3)c3ccc(C(=O)NC(CCC(=O)O)C(=O)O)cc3)cc2c(=O)[nH]1 (configuration not stated)
19	–	CC(C)N(Cc1ccc2nc(N)nc(O)c2c1)c1ccc(C(=O)NC(CCC(=O)O)C(=O)O)cc1 (configuration not stated)
32	–	Nc1nc2ccc(CN(CCC(=O)O)c3ccc(C(=O)NC(CCC(=O)O)C(=O)O)cc3)cc2c(=O)[nH]1 (configuration not stated)
6	–	C#CCN(Cc1ccc2[nH]c(N)nc(=O)c2c1)c1ccc(C(=O)NC(CCC(=O)O)C(=O)O)cc1 (configuration not stated)
2	–	Nc1nc(O)c2cc(CNc3ccc(C(=O)NC(CCC(=O)O)C(=O)O)cc3)ccc2n1 (configuration not stated) [DIDEAZAFOLATE]
